Holding throughout (format): physicochemical
Series [1] can be described thus: Stability of levalbuterol hydrochloride at different storage temperatures (HPLC area %). The protocol: At lower pH values, greater levalbuterol hydrochloride degradation occurred. […] [table] […] The percentage LVB, Compound B, or Compound A is relative to the total amount of sample at time=T. Yields were determined by mass. Chemical purity was determined by HPLC. […] The mobile phase comprised a phosphate buffer at pH 3.00 and acetonitrile in a gradient. The eluent flow was 1.0 ml/min. The detector was set to a wavelength of 230 nm, using an HPLC Hewlett Packard VWD detector HP 1100, as a detector.

A short description of series [2]: Stability of levalbuterol hydrochloride at 70° C. (HPLC area %, appearance). The protocol: [table] […] At lower pH values, greater levalbuterol hydrochloride degradation occurred. […] Yields were determined by mass. Chemical purity was determined by HPLC. […] The mobile phase comprised a phosphate buffer at pH 3.00 and acetonitrile in a gradient. The eluent flow was 1.0 ml/min. The detector was set to a wavelength of 230 nm, using an HPLC Hewlett Packard VWD detector HP 1100, as a detector.

Series [3] is described as follows: Stability comparison of sample at 40° C. and 75% RH (HPLC area %). The procedure: Yields were determined by mass. Chemical purity was determined by HPLC. The HPLC analysis was conducted using a column POLARIS C18-A 250 mm×4.6 mm×[…] (cat n.2002-250×046) and a mobile phase. The mobile phase comprised a phosphate buffer at pH 3.00 and acetonitrile in a gradient. The eluent flow was 1.0 ml/min. The detector was set to a wavelength of 230 nm, using an HPLC Hewlett Packard VWD detector HP 1100, as a detector.
Using the products of the previous examples, a stability study at 40° C. and 75% RH was carried out.

Setting [4] is: T = 0, before storage at 70° C., Hydrochloride.
[5] abbreviates: 1 week at 70° C., Hydrochloride.
[6] abbreviates: 3 months at 40° C. and 75% RH, Hydrochloride.
[7] abbreviates: 6 months at 40° C. and 75% RH, Hydrochloride.
The mark [8] stands for this setting: T = 0, 40° C. and 75% RH study, Hydrochloride.

Where a name gives a salt, the structure may show the parent alone.

With `CC(C)(C)NC[C@H](O)c1ccc(O)c(CO)c1` [levalbuterol hydrochloride, (R)-α^1-[[(1,1-dimethylethyl)amino]methyl]-4-hydroxy-1,3-benzenedimethanol hydrochloride], the “Compound A” value in series [1] (1 month, 25° C.) came to 0.03%; in series [1] (2 months, 25° C.), 0.04%; in series [1] (20 hrs, 40-45° C.), 0.11%; in series [1] (20 hrs, 55-60° C.), 0.23%; in series [1] (32 hrs, 55-60° C.), 0.26%; in series [1] (10 days, 25° C.), 0.02%. The “Compound A” value in series [1] (T = 0, 20° C., MeOH 6700 ppm) is 0.028%; in series [1] (T = 0, 25° C., MeOH 2090 ppm) it was 0.02%. Moreover, the “Compound B” value in series [1] (1 month, 25° C.) was 0.02%; in series [1] (2 months, 25° C.), 0.02%; in series [1] (20 hrs, 40-45° C.), 0.30%; in series [1] (20 hrs, 55-60° C.), 0.45%; in series [1] (32 hrs, 55-60° C.), 0.45%; in series [1] (10 days, 25° C.), 0.01%. Also, the “Compound B” value in series [1] (T = 0, 20° C., MeOH 6700 ppm) is 0.035%; in series [1] (T = 0, 25° C., MeOH 2090 ppm) it was 0.01%. Besides, the LVB in series [1] (1 month, 25° C.) is 99.87%; in series [1] (2 months, 25° C.), 99.82%; in series [1] (20 hrs, 40-45° C.), 99.30%; in series [1] (20 hrs, 55-60° C.) it was 98.17%; in series [1] (32 hrs, 55-60° C.), 97.9%; in series [1] (10 days, 25° C.) it was 99.88%. The LVB in series [1] (T = 0, 20° C., MeOH 6700 ppm) is 99.84%; in series [1] (T = 0, 25° C., MeOH 2090 ppm), 99.90%. Also, the “Total Unknown Impurities” value in series [1] (1 month, 25° C.) was found to be 0.08%; in series [1] (2 months, 25° C.), 0.12%; in series [1] (20 hrs, 40-45° C.) it was 0.29%; in series [1] (20 hrs, 55-60° C.) it was 1.15%; in series [1] (32 hrs, 55-60° C.), 1.39%; in series [1] (10 days, 25° C.), 0.09%. Further, the “Total Unknown Impurities” value in series [1] (T = 0, 20° C., MeOH 6700 ppm) is 0.097%; in series [1] (T = 0, 25° C., MeOH 2090 ppm), 0.07%. Further, in series [2] (setting [4]), the “Sample (appearance)” value was “White solid”.

`CC(C)(C)NC[C@H](O)c1ccc(O)c(CO)c1` [Example 21, Levalbuterol Hydrochloride]: in series [2] (setting [5]), the “Compound A” value is given as 0.72%, the “Compound B” value is recorded as 0.26%, the “Compound C” value was determined as 0.18% and the “LVB (levalbuterol hydrochloride)” value was 97.1%. For the same compound, in series [2] (setting [5]), the “Sample (appearance)” value is “Pale yellow” and the “Total Unknown Impurities” value is recorded as 1.21%. In addition, the “Compound C” value in series [2] (T = 0, before storage at 70° C.) worked out at 0.15%. For the same compound, in series [2] (setting [4]), the “Compound A” value turned out to be 0.24%, the “Compound B” value turned out to be 0.18%, the “LVB (levalbuterol hydrochloride)” value was 99.4% and the “Sample (appearance)” value was “White solid^c”.

On to `CC(C)(C)NC[C@H](O)c1ccc(O)c(CO)c1` [Example 12, Levalbuterol Hydrochloride], for which, in series [3] (setting [6]), the “Comp. A” value was determined as 0.02%, the “Comp. B” value is 0.06%, the LVB was 99.85% and the “Total Unknown Impurities” value turned out to be 0.07%. For the same compound, the “Total Unknown Impurities” value in series [3] (6 months at 40° C. and 75% RH) came out at 0.09%. In series [3] (setting [7]), the “Comp. A” value turned out to be 0.02%, the “Comp. B” value came out at 0.06% and the LVB is recorded as 99.83%. In addition, in series [3] (setting [8]), the “Comp. A” value was 0.02%, the “Comp. B” value was determined as 0.01%, the LVB is listed as 99.91% and the “Total Unknown Impurities” value was 0.06%.

Turning to `CC(C)(C)NC[C@H](O)c1ccc(O)c(CO)c1` [Example 16, Levalbuterol Hydrochloride], in series [3] (3 months at 40° C. and 75% RH), the “Comp. C” value stood at 0.04%. Further, in series [3] (setting [6]), the “Comp. A” value is 0.06%, the “Comp. B” value came to 0.09%, the LVB worked out at 99.75% and the “Total Unknown Impurities” value is given as 0.08%. In series [3] (6 months at 40° C. and 75% RH), the “Comp. C” value is reported as 0.05%. For the same compound, in series [3] (setting [7]), the “Comp. A” value is 0.07%, the “Comp. B” value worked out at 0.13% and the LVB is reported as 99.72%. In series [3] (setting [8]), the “Comp. A” value is recorded as 0.01%, the “Comp. B” value is reported as 0.02%, the LVB was 99.86% and the “Total Unknown Impurities” value was determined as 0.11%.

On to `CC(C)(C)NC[C@H](O)c1ccc(O)c(CO)c1` [Example 8, Levalbuterol Hydrochloride], for which, in series [3] (setting [6]), the “Comp. A” value turned out to be 0.03%, the “Comp. B” value was found to be 0.07%, the LVB came to 99.85% and the “Total Unknown Impurities” value is on record as 0.05%. Moreover, the “Total Unknown Impurities” value in series [3] (6 months at 40° C. and 75% RH) turned out to be 0.09%. For the same compound, in series [3] (setting [7]), the “Comp. A” value turned out to be 0.03%, the “Comp. B” value came out at 0.07% and the LVB is 98.81%. Besides, in series [3] (setting [8]), the “Comp. A” value amounted to 0.01%, the “Comp. B” value turned out to be 0.03%, the LVB is recorded as 99.87% and the “Total Unknown Impurities” value is 0.09%.
